Test systems include COLO 205; MDA-MB-231; SK-MEL-2; KM12; MDA-N; SNB-19; NCI/ADR-RES; BT-549; U-251; CAKI-1; OVCAR-8; CCRF-CEM; HL-60; NCI-H522; LOX IMVI; MOLT-4; UO-31; HOP-92; SW-620; SN12C.
Common to all, as to test: NCI-60 cell line screen, 48 h

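Method: 48-hour compound exposure of cells in 96-well plates, five concentrations, linear interpolation of endpoints. Here, GI50 denotes the concentration required for 50% inhibition of growth.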 The source made the active and inactive calls. Cut-off read from the data, not from the text of the source: active = GI50 up to about 1.1 µM and inactive = higher.

In the case of `CC(=O)Nc1c(C)cc2c(nc3n2CCC3OC(C)=O)c1[N+](=O)[O-]` (configuration not stated), the GI50 in the assay with COLO 205, in the assay on MDA-MB-231, with SK-MEL-2, in the assay on KM12, in the assay with MDA-N and in the assay with SNB-19 was > 100 µM (inactive) each time. For the same molecule, the GI50 in the assay on NCI/ADR-RES, in the assay on BT-549, in the assay on U-251, in the assay with CAKI-1, in the assay on OVCAR-8 and in the assay on CCRF-CEM was > 100 µM (inactive) in each case. For the same molecule, the GI50 in the assay with HL-60, in the assay with NCI-H522, in the assay on LOX IMVI, in the assay with MOLT-4, in the assay with UO-31 and with HOP-92 was > 100 µM (inactive) each time. For the same molecule, the GI50 in the assay with SW-620 and with SN12C was > 100 µM (inactive) each time.

For the molecule `O=C(CC(c1ccccc1)c1c(O)c2ccccc2oc1=O)c1ccccc1` (configuration not stated), the GI50 with COLO 205 was 59.7 µM (inactive); with MDA-MB-231, > 100 µM (inactive); in the assay on SK-MEL-2 it was > 92.3 µM (inactive); in the assay with KM12 it was > 100 µM (inactive); in the assay with MDA-N it was > 84.5 µM (inactive); in the assay with SNB-19 it was > 95.7 µM (inactive). Also, the GI50 in the assay with NCI/ADR-RES was 54.2 µM (inactive); in the assay on BT-549, 49.5 µM (inactive); with U-251, > 100 µM (inactive); in the assay on CAKI-1, 21.2 µM (inactive); with OVCAR-8, > 100 µM (inactive); in the assay with CCRF-CEM, 59.7 µM (inactive). Further, the GI50 was 90.2 µM (inactive) in the assay with HL-60; 47 µM (inactive) in the assay on NCI-H522; > 67.8 µM (inactive) in the assay with LOX IMVI; 84.9 µM (inactive) in the assay with MOLT-4; 98.4 µM (inactive) in the assay on UO-31; > 44.3 µM (inactive) in the assay with HOP-92. In addition, the GI50 was > 100 µM (inactive) with SW-620 and > 87.9 µM (inactive) in the assay with SN12C.

`S=C1Cc2cc3ccccc3nc2-c2ccccc2N1`: the GI50 with COLO 205 is 54 µM (inactive); in the assay on MDA-MB-231 it was 10.4 µM (inactive); with SK-MEL-2, 36.7 µM (inactive); with KM12, 19.3 µM (inactive); in the assay on MDA-N, 5.13 µM (inactive); in the assay with SNB-19, > 29.3 µM (inactive). The GI50 in the assay on NCI/ADR-RES is 10.1 µM (inactive); with BT-549, > 33.8 µM (inactive); with U-251 it was 13.7 µM (inactive); in the assay on CAKI-1, 29.6 µM (inactive); in the assay with OVCAR-8 it was 11.9 µM (inactive); with CCRF-CEM it was > 100 µM (inactive). Moreover, the GI50 in the assay on HL-60 was > 100 µM (inactive); with NCI-H522 it was 24.9 µM (inactive); in the assay with LOX IMVI, 33.4 µM (inactive); in the assay with MOLT-4, > 96.8 µM (inactive); with UO-31, 9.06 µM (inactive); with HOP-92 it was 8.87 µM (inactive). Besides, the values for the GI50 in the assay on SW-620 and with SN12C were 37 µM (inactive) and 16.7 µM (inactive), respectively.

On to `CC(=O)/C(=N\N=C(N)N)c1ccccc1`, for which the GI50 in the assay on COLO 205 was 35.1 µM (inactive); in the assay on MDA-MB-231, > 100 µM (inactive); with SK-MEL-2, > 100 µM (inactive); in the assay with KM12, > 100 µM (inactive); in the assay on MDA-N, > 100 µM (inactive); in the assay on SNB-19 it was > 100 µM (inactive). Further, the GI50 in the assay with NCI/ADR-RES was > 100 µM (inactive); in the assay with BT-549, > 100 µM (inactive); in the assay on U-251, > 100 µM (inactive); in the assay with CAKI-1, > 100 µM (inactive); with OVCAR-8, > 100 µM (inactive); in the assay with NCI-H522, 59.8 µM (inactive). Besides, the GI50 in the assay with LOX IMVI, with MOLT-4, in the assay on UO-31, in the assay with HOP-92, in the assay with SW-620 and in the assay on SN12C was > 100 µM (inactive) throughout.

In the case of `CCOC(=O)CCC(NC(=O)C(N)Cc1ccc(N(CCCl)CCCl)cc1)C(=O)OCC` (configuration not stated), the GI50 in the assay with COLO 205 was 0.735 µM (active); in the assay with MDA-MB-231, 1.69 µM (inactive); in the assay with SK-MEL-2 it was 3.01 µM (inactive); in the assay with KM12, 1.52 µM (inactive); in the assay with MDA-N it was 1.64 µM (inactive); in the assay on SNB-19, 4.09 µM (inactive). The GI50 in the assay with NCI/ADR-RES is 1.33 µM (inactive); in the assay on BT-549, 4.66 µM (inactive); in the assay with U-251, 1.85 µM (inactive); in the assay on CAKI-1, 0.327 µM (active); in the assay with OVCAR-8 it was 0.867 µM (active); in the assay on CCRF-CEM, < 0.0246 µM (active). Further, the GI50 is 0.0665 µM (active) with HL-60; 0.285 µM (active) with NCI-H522; 0.187 µM (active) in the assay with LOX IMVI; 0.0451 µM (active) with MOLT-4; 0.675 µM (active) in the assay with UO-31; 0.253 µM (active) in the assay with HOP-92. The GI50 in the assay with SW-620 was 1.29 µM (inactive); in the assay on SN12C, 1.51 µM (inactive).

Consider `COc1ccc(-n2c(=O)n(C)c(=O)n2-c2c(C)c(C)c(C)c(C)c2C)cc1`, for which the GI50 with COLO 205, with MDA-MB-231, with SK-MEL-2, in the assay on KM12, in the assay with MDA-N and in the assay on SNB-19 was > 100 µM (inactive) throughout. Besides, the GI50 was > 100 µM (inactive) in the assay on NCI/ADR-RES; > 100 µM (inactive) in the assay on BT-549; > 100 µM (inactive) with U-251; > 100 µM (inactive) with CAKI-1; > 100 µM (inactive) in the assay with OVCAR-8; 0.148 µM (active) in the assay with CCRF-CEM. The GI50 in the assay on NCI-H522, in the assay on LOX IMVI, in the assay on MOLT-4, with UO-31, in the assay on HOP-92 and in the assay on SW-620 was > 100 µM (inactive) in each case. In addition, in the assay on SN12C, the GI50 is > 100 µM (inactive).

In the case of `Nc1nc(N)c(/N=N/c2ccc(C(=O)O)c(O)c2)c(N)n1`, the GI50 with COLO 205, with MDA-MB-231, with SK-MEL-2, in the assay with KM12, in the assay with MDA-N and with SNB-19 was > 100 µM (inactive) in each case. Besides, the GI50 in the assay on NCI/ADR-RES, in the assay with BT-549, in the assay on U-251, in the assay on CAKI-1, in the assay on OVCAR-8 and in the assay on CCRF-CEM was > 100 µM (inactive) in each case. Moreover, the GI50 was 26.8 µM (inactive) in the assay with NCI-H522; > 100 µM (inactive) in the assay on LOX IMVI; > 100 µM (inactive) in the assay on MOLT-4; > 100 µM (inactive) in the assay on UO-31; 92.5 µM (inactive) in the assay with HOP-92; > 100 µM (inactive) in the assay with SW-620. Also, the GI50 in the assay on SN12C is > 100 µM (inactive).

On to `C[C@]12CC(c3ccccc3O1)C(C(N)=O)C(=O)N2` (some centres not stated), for which the GI50 in the assay on COLO 205, with MDA-MB-231, in the assay with SK-MEL-2, with KM12, with MDA-N and in the assay on SNB-19 was > 100 µM (inactive) throughout. Moreover, the GI50 in the assay on NCI/ADR-RES, with BT-549, in the assay with U-251, in the assay with CAKI-1, in the assay on OVCAR-8 and in the assay on CCRF-CEM was > 100 µM (inactive) throughout. Besides, the GI50 in the assay on HL-60, with NCI-H522, with LOX IMVI, in the assay on MOLT-4, in the assay on HOP-92 and with SW-620 was > 100 µM (inactive) each time. Also, the GI50 in the assay on SN12C was > 100 µM (inactive).

As to `Clc1sc(Cl)c2c1[C@H](Cl)C[C@@H]2Cl`, the GI50 was 29.2 µM (inactive) in the assay with COLO 205; 32.1 µM (inactive) with MDA-MB-231; 22.5 µM (inactive) with SK-MEL-2; 25.6 µM (inactive) with KM12; 20.6 µM (inactive) with MDA-N; 15.9 µM (inactive) with NCI/ADR-RES. The GI50 was 26.5 µM (inactive) in the assay on BT-549; 20.9 µM (inactive) in the assay with U-251; 20.2 µM (inactive) in the assay with CAKI-1; 18.4 µM (inactive) with OVCAR-8; 6.82 µM (inactive) in the assay with CCRF-CEM; 1.07 µM (active) in the assay on NCI-H522. Further, the GI50 in the assay with LOX IMVI is 9.46 µM (inactive); in the assay with MOLT-4 it was 50.2 µM (inactive); with UO-31 it was 14.6 µM (inactive); in the assay on HOP-92 it was 6.58 µM (inactive); with SW-620 it was 3.87 µM (inactive); with SN12C it was 16.8 µM (inactive).

With `O=C(CN1CCCC1)Nc1ccc2c(c1)C1Oc3ccccc3CC1CO2` (configuration not stated), the GI50 in the assay with COLO 205 was 14 µM (inactive); in the assay with MDA-MB-231, 22.9 µM (inactive); in the assay with SK-MEL-2, 23.9 µM (inactive); with KM12, 43.4 µM (inactive); with MDA-N it was 31.2 µM (inactive); in the assay on NCI/ADR-RES, 73.3 µM (inactive). The GI50 was 19.4 µM (inactive) with BT-549; 21.2 µM (inactive) with U-251; 49.3 µM (inactive) with CAKI-1; 97.5 µM (inactive) in the assay with OVCAR-8; 47.2 µM (inactive) in the assay with CCRF-CEM; 46.6 µM (inactive) in the assay with HL-60. Also, the GI50 in the assay with NCI-H522 was 32.4 µM (inactive); in the assay with LOX IMVI it was 21.4 µM (inactive); with MOLT-4, 31.4 µM (inactive); with UO-31, 22.1 µM (inactive); with HOP-92, 16.7 µM (inactive); in the assay on SW-620 it was 17.3 µM (inactive). Moreover, the GI50 in the assay with SN12C is > 100 µM (inactive).

Source of the values: ChEMBL document CHEMBL1201862, “PubChem BioAssay data set” (2004).
